Drawing on US12410208B2, “(2-acetamidyl)thio-beta-D-galactopyranoside derivatives” (Idorsia Pharmaceuticals Ltd, priority 2020, dated 2025), this text covers IC50 for 16 molecules.

Experiment [1] deals with biotinylated human Gal-3 (hGal-3) (Homo sapiens, UniProt P17931). Nature of the experiment: Competitive binding assay: biotinylated hGal-3 binding to microplate-adsorbed asialofetuin (ASF), spectrophotometric. The procedure: If not explicitly mentioned otherwise, the inhibition data refer to the binding of biotinylated human Gal-3 (hGal-3).
Chain of biotinylated human Gal-3 (hGal-3) (P17931 whole entry): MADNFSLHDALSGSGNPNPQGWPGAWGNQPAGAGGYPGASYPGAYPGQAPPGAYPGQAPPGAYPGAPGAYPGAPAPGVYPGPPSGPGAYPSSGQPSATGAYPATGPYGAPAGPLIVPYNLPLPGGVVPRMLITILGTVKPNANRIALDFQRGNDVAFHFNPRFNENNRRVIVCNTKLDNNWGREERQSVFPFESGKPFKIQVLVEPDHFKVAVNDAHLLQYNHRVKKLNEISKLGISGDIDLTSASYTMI
(§1) Biological Assay Evaluation of Compound Inhibitory Activity (IC50)
The inhibitory activity of compounds is determined in competitive binding assays.
Briefly, compounds are serially diluted in DMSO (working dilutions).
(§2) Plates are incubated for 3 hours at 4° C., then washed with cold assay buffer (3×50 uL), incubated for 1 hour with 25 μL/well of a streptavidin-peroxidase solution (diluted in assay buffer to 80 ng/mL) at 4° C., followed by further washing steps with assay buffer (3×50 uL). Finally, 25 μL/well of ABTS substrate is added.
(§3) The calculated IC50 values may fluctuate depending on the daily assay performance. Fluctuations of this kind are known to those skilled in the art. IC50 values from several measurements are given as mean values.

Another experiment deals with human Gal-1 (hGal-1) (Homo sapiens, UniProt P09382). Nature of the experiment: Competitive binding assay: biotinylated hGal-1 binding to microplate-adsorbed asialofetuin (ASF), spectrophotometric. As to conditions: hGal-1 binding to asialofetuin; Table 15; R and S epimers of selected Examples also listed; read-out: IC50 (Galectin-1 inhibition). The procedure: as §1
Chain of human Gal-1 (hGal-1) (P09382 whole entry): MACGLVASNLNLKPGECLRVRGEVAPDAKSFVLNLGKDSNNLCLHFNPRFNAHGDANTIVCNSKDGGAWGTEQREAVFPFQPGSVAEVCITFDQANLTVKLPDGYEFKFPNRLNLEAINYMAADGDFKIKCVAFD
The inhibitory activity of compounds is determined in competitive binding assays. This spectrophotometric assay measures the binding of biotinylated human Gal-3 (hGal-3) or human Gal-1 (hGal-1), respectively, to a microplate-adsorbed glycoprotein, asialofetuin (ASF) (Proc Natl Acad Sci USA. 2013 Mar. 26; 110(13):5052-7.).
Briefly, compounds are serially diluted in DMSO (working dilutions). ASF-coated 384well plates are supplemented with 22.8 μL/well of biotinylated hGal-3 or hGal-1 in assay buffer (i.e. 300-1000 ng/mL biotinylated hGal-3 or hGal-1) to which 1.2 μL of compound working dilutions are added and mixed.
as §2, §3

Where [2] appears, read: Gal-3 inhibition, Table 5, read-out: IC50.
Setting [3] is: Table 12, hGal-3, read-out: IC50 (Gal-3 inhibition).

Like-named read-outs stand apart in the source and are kept apart here.

With `CN(CC(F)(F)F)C(=O)[C@H](S[C@@H]1O[C@H](CO)[C@H](O)[C@H](n2cc(-c3cc(F)c(F)c(F)c3)nn2)[C@H]1O)C1(O)CCC1` [Example 2.34.219R., (R)-2-(((2S,3R,4S,5R,6R)-3,5-Dihydroxy-6-(hydroxymethyl)-4-(4-(3,4,5-trifluorophenyl)-1H-1,2,3-triazol-1-yl)tetrahydro-2H-pyran-2-yl)thio)-2-(1-hydroxycyclobutyl)-N-methyl-N-(2,2,2-trifluoroethyl)acetamide], the half-inhibitory concentration (IC50) in experiment [1] (setting [2]) was 7840 nM; on human Gal-1 (hGal-1) it was 33600 nM.

Turning to `CCN(C)C(=O)C(S[C@@H]1O[C@H](CO)[C@H](O)[C@H](n2cc(-c3ccc(F)c(F)c3)nn2)[C@H]1O)C1(O)CCOCC1` (stereo partly drawn) [Example 16.41.203., 2-(((2S,3R,4S,5R,6R)-4-(4-(3,4-Difluorophenyl)-1H-1,2,3-triazol-1-yl)-3,5-dihydroxy-6-(hydroxymethyl)tetrahydro-2H-pyran-2-yl)thio)-N-ethyl-2-(4-hydroxytetrahydro-2H-pyran-4-yl)-N-methylacetamide], the concentration for half-maximal inhibition (IC50) in experiment [1] (Table 11, hGal-3, read-out: IC50 (Gal-3 inhibition)) is 60 nM; on human Gal-1 (hGal-1), 130 nM.

In the case of `CO[C@@H]1[C@@H](n2cc(-c3cc(F)c(F)c(F)c3)nn2)[C@@H](O)[C@@H](CO)O[C@H]1SC(C(=O)NC1CC(F)(F)C1)C1(O)CCC(F)(F)CC1` (stereo partly drawn) [Example 2.44.253.I., 2-(4,4-Difluoro-1-hydroxycyclohexyl)-N-(3,3-difluorocyclobutyl)-2-(((2S,3R,4S,5R,6R)-5-hydroxy-6-(hydroxymethyl)-3-methoxy-4-(4-(3,4,5-trifluorophenyl)-1H-1,2,3-triazol-1-yl)tetrahydro-2H-pyran-2-yl)thio)acetamide], the IC50 in experiment [1] (setting [3]) is 160 nM; on human Gal-1 (hGal-1), 670 nM.

For `CN(CC(C)(C)F)C(=O)[C@@H](S[C@@H]1O[C@H](CO)[C@H](O)[C@H](n2cc(-c3cc(F)c(F)c(F)c3)nn2)[C@H]1O)C1(O)CCCCC1` [Example 2.39.222S., (S)-2-(((2S,3R,4S,5R,6R)-3,5-Dihydroxy-6-(hydroxymethyl)-4-(4-(3,4,5-trifluorophenyl)-1H-1,2,3-triazol-1-yl)tetrahydro-2H-pyran-2-yl)thio)-N-(2-fluoro-2-methylpropyl)-2-(1-hydroxycyclohexyl)-N-methylacetamide], the figures for the half-maximal inhibitory concentration (IC50) (in experiment [1] (setting [2]); on human Gal-1 (hGal-1)) were 20 nM and 90 nM, respectively.

Turning to `CN(CC(C)(C)F)C(=O)C(S[C@@H]1O[C@H](CO)[C@H](O)[C@H](n2cc(-c3cc(F)c(F)c(F)c3)nn2)[C@H]1O)C1(O)CCC1` (stereo partly drawn) [Example 2.34.222., 2-(((2S,3R,4S,5R,6R)-3,5-Dihydroxy-6-(hydroxymethyl)-4-(4-(3,4,5-trifluorophenyl)-1H-1,2,3-triazol-1-yl)tetrahydro-2H-pyran-2-yl)thio)-N-(2-fluoro-2-methylpropyl)-2-(1-hydroxycyclobutyl)-N-methylacetamide], the half-maximal inhibitory concentration (IC50) in experiment [1] (setting [2]) is 410 nM; on human Gal-1 (hGal-1) it was 220 nM.

Take `CN(Cc1ccccc1)C(=O)C(S[C@@H]1O[C@H](CO)[C@H](O)[C@H](n2cc(-c3cc(F)c(F)c(F)c3)nn2)[C@H]1O)C1(O)CCOCC1` (stereo partly drawn) [Example 2.41.207., N-Benzyl-2-(((2S,3R,4S,5R,6R)-3,5-dihydroxy-6-(hydroxymethyl)-4-(4-(3,4,5-trifluorophenyl)-1H-1,2,3-triazol-1-yl)tetrahydro-2H-pyran-2-yl)thio)-2-(4-hydroxytetrahydro-2H-pyran-4-yl)-N-methylacetamide]: the concentration for half-maximal inhibition (IC50) in experiment [1] (Gal-3 inhibition, Table 4, read-out: IC50) was 70 nM; on human Gal-1 (hGal-1) it was 72 nM.

With `CC(C)CN(C)C(=O)[C@@H](S[C@@H]1O[C@H](CO)[C@H](O)[C@H](n2cc(-c3cc(F)c(F)c(F)c3)nn2)[C@H]1O)C1(O)CCOCC1` [Example 2.41.200S., (S)-2-(((2S,3R,4S,5R,6R)-3,5-Dihydroxy-6-(hydroxymethyl)-4-(4-(3,4,5-trifluorophenyl)-1H-1,2,3-triazol-1-yl)tetrahydro-2H-pyran-2-yl)thio)-2-(4-hydroxytetrahydro-2H-pyran-4-yl)-N-isobutyl-N-methylacetamide], the IC50 in experiment [1] (Gal-3 inhibition, Table 2, read-out: IC50) is 50 nM; on human Gal-1 (hGal-1), 110 nM.

Turning to `CO[C@@H]1[C@@H](n2cc(-c3cc(F)c(F)c(F)c3)nn2)[C@@H](O)[C@@H](CO)O[C@H]1SC(C(=O)N(C)C)C1(O)CCC(F)(F)CC1` (stereo partly drawn) [Example 2.44.201.I., 2-(4,4-Difluoro-1-hydroxycyclohexyl)-2-(((2S,3R,4S,5R,6R)-5-hydroxy-6-(hydroxymethyl)-3-methoxy-4-(4-(3,4,5-trifluorophenyl)-1H-1,2,3-triazol-1-yl)tetrahydro-2H-pyran-2-yl)thio)-N,N-dimethylacetamide], the IC50 was determined as 60 nM in experiment [1] (setting [3]) and 250 nM on human Gal-1 (hGal-1).

`CO[C@@H]1[C@@H](n2cc(-c3cc(F)c(F)c(F)c3)nn2)[C@@H](O)[C@@H](CO)O[C@H]1SC(C(=O)N(C)C1CCC(C)(C)CC1)C1(O)CCC(F)(F)CC1` (stereo partly drawn) [Example 2.44.246.I., 2-(4,4-Difluoro-1-hydroxycyclohexyl)-N-(4,4-dimethylcyclohexyl)-2-(((2S,3R,4S,5R,6R)-5-hydroxy-6-(hydroxymethyl)-3-methoxy-4-(4-(3,4,5-trifluorophenyl)-1H-1,2,3-triazol-1-yl)tetrahydro-2H-pyran-2-yl)thio)-N-methylacetamide]: the IC50 in experiment [1] (setting [3]) stood at 320 nM; at human Gal-1 (hGal-1) it was 1200 nM.

With `O=C(C(S[C@@H]1O[C@H](CO)[C@H](O)[C@H](n2cc(-c3cc(F)c(F)c(F)c3)nn2)[C@H]1O)C1(O)CC(F)(F)C1)N1CCC1` (stereo partly drawn) [Example 2.33.206., 1-(Azetidin-1-yl)-2-(3,3-difluoro-1-hydroxycyclobutyl)-2-(((2S,3R,4S,5R,6R)-3,5-dihydroxy-6-(hydroxymethyl)-4-(4-(3,4,5-trifluorophenyl)-1H-1,2,3-triazol-1-yl)tetrahydro-2H-pyran-2-yl)thio)ethan-1-one], the concentration for half-maximal inhibition (IC50) in experiment [1] (setting [2]) came out at 580 nM; at human Gal-1 (hGal-1), 1710 nM.

For `CC(C)(O)[C@@H](S[C@@H]1O[C@H](CO)[C@H](O)[C@H](n2cc(-c3cc(F)c(F)c(F)c3)nn2)[C@H]1O)C(=O)N1CCCC1` [Example 2.31.211R, (R)-2-(((2S,3R,4S,5R,6R)-3,5-Dihydroxy-6-(hydroxymethyl)-4-(4-(3,4,5-trifluorophenyl)-1H-1,2,3-triazol-1-yl)tetrahydro-2H-pyran-2-yl)thio)-3-hydroxy-3-methyl-1-(pyrrolidin-1-yl)butan-1-one], at human Gal-1 (hGal-1), the IC50 is 2150 nM.

Take `Cc1cc(-c2cn([C@H]3[C@@H](O)[C@@H](CO)O[C@@H](S[C@@H](C(=O)N(C)C4CC4)C4(O)CCC(F)(F)CC4)[C@@H]3O)nn2)cnc1F` [Example 21.44.221R., (R)-N-Cyclopropyl-2-(4,4-difluoro-1-hydroxycyclohexyl)-2-(((2S,3R,4S,5R,6R)-4-(4-(6-fluoro-5-methylpyridin-3-yl)-1H-1,2,3-triazol-1-yl)-3,5-dihydroxy-6-(hydroxymethyl)tetrahydro-2H-pyran-2-yl)thio)-N-methylacetamide]: the concentration for half-maximal inhibition (IC50) on human Gal-1 (hGal-1) was 220 nM.

In the case of `CC(C)(O)[C@H](S[C@@H]1O[C@H](CO)[C@H](O)[C@H](n2cc(-c3cc(F)c(F)c(F)c3)nn2)[C@H]1O)C(=O)N1CCCC1` [Example 2.31.211S., (S)-2-(((2S,3R,4S,5R,6R)-3,5-Dihydroxy-6-(hydroxymethyl)-4-(4-(3,4,5-trifluorophenyl)-1H-1,2,3-triazol-1-yl)tetrahydro-2H-pyran-2-yl)thio)-3-hydroxy-3-methyl-1-(pyrrolidin-1-yl)butan-1-one], on human Gal-1 (hGal-1), the IC50 worked out at 530 nM.

Take “(R)-2-(((2S,3R,4S,5R,6R)-3,5-dihydroxy-6-(hydroxymethyl)-4-(4-(3,4,5-trifluorophenyl)-1H-1,2,3-triazol-1-yl)tetrahydro-2H-pyran-2-yl)thio)-3-hydroxy-3-methyl-1-(3-methylazetidin-1-yl)butan-1-one [Example 2.31.205R.]”: the IC50 at human Gal-1 (hGal-1) is 20000 nM.

Regarding `CO[C@@H]1[C@@H](n2cc(-c3cc(F)c(F)c(F)c3)nn2)[C@@H](O)[C@@H](CO)O[C@H]1SC(C(=O)NC1CCC(C)(C)CC1)C1(O)CCC(F)(F)CC1` (stereo partly drawn) [Example 2.44.255.I., 2-(4,4-Difluoro-1-hydroxycyclohexyl)-N-(4,4-dimethylcyclohexyl)-2-(((2S,3R,4S,5R,6R)-5-hydroxy-6-(hydroxymethyl)-3-methoxy-4-(4-(3,4,5-trifluorophenyl)-1H-1,2,3-triazol-1-yl)tetrahydro-2H-pyran-2-yl)thio)acetamide], the IC50 on human Gal-1 (hGal-1) worked out at 830 nM.

As for `Cc1cc(-c2cn([C@H]3[C@@H](O)[C@@H](CO)O[C@@H](S[C@H](C(=O)N(C)C4CC4)C4(O)CCC(F)(F)CC4)[C@@H]3O)nn2)cnc1F` [Example 21.44.221S., (S)-N-Cyclopropyl-2-(4,4-difluoro-1-hydroxycyclohexyl)-2-(((2S,3R,4S,5R,6R)-4-(4-(6-fluoro-5-methylpyridin-3-yl)-1H-1,2,3-triazol-1-yl)-3,5-dihydroxy-6-(hydroxymethyl)tetrahydro-2H-pyran-2-yl)thio)-N-methylacetamide], on human Gal-1 (hGal-1), the half-maximal inhibitory concentration (IC50) came to 70 nM.
